PMC9516332 (Frontiers in Oncology, 2022)

Key:
Test in all cases: Kinase panel profiling at 1 µmol/L (MSA or IMAP), percentage inhibition
Assay type in all cases: biochemical
[1] = target: T1, panel of 255 wild-type kinases (Homo sapiens, UniProt P51955); conditions: NEK2; 1 µmol/L single concentration; read-out: %-inhibition, NEK2
T1 sequence (P51955 1-445): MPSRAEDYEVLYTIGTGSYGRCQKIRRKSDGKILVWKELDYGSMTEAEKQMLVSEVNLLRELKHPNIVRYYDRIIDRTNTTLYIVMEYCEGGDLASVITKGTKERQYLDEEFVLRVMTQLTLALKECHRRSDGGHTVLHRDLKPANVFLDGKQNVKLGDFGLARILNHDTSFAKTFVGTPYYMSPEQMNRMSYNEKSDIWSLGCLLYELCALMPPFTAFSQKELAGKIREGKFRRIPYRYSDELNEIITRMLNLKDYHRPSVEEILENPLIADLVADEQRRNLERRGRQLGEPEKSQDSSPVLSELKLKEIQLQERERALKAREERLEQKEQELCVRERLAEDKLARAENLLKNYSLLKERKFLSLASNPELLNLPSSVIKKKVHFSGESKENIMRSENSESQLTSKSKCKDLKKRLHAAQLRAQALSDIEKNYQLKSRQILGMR

[2] = target: panel of 255 wild-type kinases (Homo sapiens, UniProt Q9BYP7); conditions: kinase WNK3; 1 µmol/L single concentration; read-out: %-inhibition at 1 µmol/L, WNK3
[3] = target: T2, panel of 255 wild-type kinases (Homo sapiens, UniProt Q9HBY8); conditions: kinase SGK2; 1 µmol/L single concentration; read-out: %-inhibition at 1 µmol/L, SGK2
T2 sequence (Q9HBY8 1-367): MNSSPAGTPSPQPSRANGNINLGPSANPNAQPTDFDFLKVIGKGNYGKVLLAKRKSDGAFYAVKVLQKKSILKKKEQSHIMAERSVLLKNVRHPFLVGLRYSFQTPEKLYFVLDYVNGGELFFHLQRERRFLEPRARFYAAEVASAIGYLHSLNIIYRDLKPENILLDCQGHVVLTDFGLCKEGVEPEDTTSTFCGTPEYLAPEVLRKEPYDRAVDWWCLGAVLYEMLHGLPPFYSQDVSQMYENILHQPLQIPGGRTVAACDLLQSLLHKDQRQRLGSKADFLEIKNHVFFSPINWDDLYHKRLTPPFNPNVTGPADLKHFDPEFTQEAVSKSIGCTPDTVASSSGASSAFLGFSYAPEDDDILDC

[4] = target: panel of 255 wild-type kinases (Homo sapiens, UniProt P35968); conditions: kinase KDR; 1 µmol/L single concentration; read-out: %-inhibition at 1 µmol/L, KDR
[5] = target: panel of 255 wild-type kinases (Homo sapiens, UniProt Q14680); conditions: MELK; 1 µmol/L single concentration; read-out: %-inhibition, MELK
[6] = target: panel of 255 wild-type kinases (Homo sapiens, UniProt Q16816); conditions: kinase PHKG1; 1 µmol/L single concentration; read-out: %-inhibition at 1 µmol/L, PHKG1
[7] = target: panel of 255 wild-type kinases (Homo sapiens, UniProt O96013); conditions: PAK4; 1 µmol/L single concentration; read-out: %-inhibition, PAK4
[8] = target: panel of 255 wild-type kinases (Homo sapiens, UniProt Q13555); conditions: CaMK2γ kinase assay; 1 µmol/L single concentration; read-out: %-inhibition CaMK2γ
[9] = target: panel of 255 wild-type kinases (Homo sapiens, UniProt Q00526); conditions: CDK3/CycE1 kinase assay; 1 µmol/L single concentration; read-out: %-inhibition CDK3/CycE1
[10] = target: T3, panel of 255 wild-type kinases (Homo sapiens, UniProt P42680); conditions: read-out: %-inhibition at 1 µmol/L, TEC
T3 sequence (P42680 1-631): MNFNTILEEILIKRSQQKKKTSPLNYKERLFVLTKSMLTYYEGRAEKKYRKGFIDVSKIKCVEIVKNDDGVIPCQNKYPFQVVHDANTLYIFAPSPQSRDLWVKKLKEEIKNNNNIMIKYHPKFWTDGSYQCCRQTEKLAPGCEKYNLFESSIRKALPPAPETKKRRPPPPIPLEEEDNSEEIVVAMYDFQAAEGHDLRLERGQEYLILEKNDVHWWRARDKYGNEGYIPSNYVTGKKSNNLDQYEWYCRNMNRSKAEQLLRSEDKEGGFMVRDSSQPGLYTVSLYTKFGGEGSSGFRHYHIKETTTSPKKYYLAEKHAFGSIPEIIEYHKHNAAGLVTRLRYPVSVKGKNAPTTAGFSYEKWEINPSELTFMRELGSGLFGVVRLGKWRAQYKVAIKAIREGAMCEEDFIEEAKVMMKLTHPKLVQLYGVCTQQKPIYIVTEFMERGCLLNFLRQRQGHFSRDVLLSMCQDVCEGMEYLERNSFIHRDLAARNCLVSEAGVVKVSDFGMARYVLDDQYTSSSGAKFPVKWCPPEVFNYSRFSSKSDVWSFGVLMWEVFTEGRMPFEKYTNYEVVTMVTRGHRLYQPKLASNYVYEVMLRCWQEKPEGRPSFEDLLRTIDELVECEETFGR

[11] = target: panel of 255 wild-type kinases (Homo sapiens, UniProt Q8N568); conditions: kinase DCAMKL2; 1 µmol/L single concentration; read-out: %-inhibition at 1 µmol/L, DCAMKL2
[12] = target: panel of 255 wild-type kinases (Homo sapiens, UniProt Q9UK32); conditions: kinase RSK4; 1 µmol/L single concentration; read-out: %-inhibition at 1 µmol/L, RSK4
[13] = target: panel of 255 wild-type kinases (Homo sapiens, UniProt Q9HC98); conditions: NEK6; 1 µmol/L single concentration; read-out: %-inhibition, NEK6
[14] = target: panel of 255 wild-type kinases (Homo sapiens, UniProt P16591); conditions: kinase FER; 1 µmol/L single concentration; read-out: %-inhibition at 1 µmol/L, FER
[15] = target: panel of 255 wild-type kinases (Homo sapiens, UniProt Q9P289); conditions: MST4; 1 µmol/L single concentration; read-out: %-inhibition, MST4

C=CC(=O)N1CCC([C@@H]2CCNc3c(C(N)=O)c(-c4ccc(Oc5ccccc5)cc4)nn32)CC1 [zanubrutinib]
inhibition at 1 µM [1]: -0.59% | inhibition at 1 µM [2]: 5.7% | inhibition at 1 µM [3]: -2.33% | inhibition at 1 µM [4]: 11% | inhibition at 1 µM [5]: -0.631% | inhibition at 1 µM [6]: 2.38% | inhibition at 1 µM [7]: -11% | inhibition at 1 µM [8]: 1.6% | inhibition at 1 µM [9]: 2.65% | inhibition at 1 µM [10]: 96% | inhibition at 1 µM [11]: 0.323% | inhibition at 1 µM [12]: -6% | inhibition at 1 µM [13]: -1% | inhibition at 1 µM [14]: 0.0146% | inhibition at 1 µM [15]: -1%
